Nine compounds from patent publication US8071627B2, “2-pyridinylethylcarboxamide derivatives and their use as fungicides” (Bayer SAS, priority 2003, dated 2011) can be followed below.

One assay relates to Peronospora brassicae. In words: Test on Peronospora brassicae, cabbage plants, preventive spray. Conditions: 330 ppm; cabbage plants (Eminence variety); sprayed 24 hours before contamination; grading 5 days after contamination vs control plants. The assay is classed as in vivo. The protocol:
(§1) The active ingredient tested is prepared by potter homogenisation in a concentrated suspension type formulation at 100 g/l. This suspension is then diluted with water to obtain the desired active material concentration.
Cabbage plants (Eminence variety) in starter cups, sown on a 50/50 peat soil-pozzolana substrate and grown at 18-20° C., are treated at the cotyledon stage by spraying with the aqueous suspension described above. Plants, used as controls, are treated with an aqueous solution not containing the active material.
After 24 hours, the plants are contaminated by spraying them with an aqueous suspension of Peronospora brassicae spores (50,000 spores per ml). The spores are collected from infected plant
The contaminated cabbage plants are incubated for 5 days at 20° C., under a humid atmosphere.
Grading is carried out 5 days after the contamination, in comparison with the control plants.

Another assay relates to Alternaria brassicae. In words: In vivo test on Alternaria brassicae (leaf spot of crucifers), radish plants, preventive spray. Conditions: 330 ppm; comparison compounds of WO 01/11965. As to the method:
as §1
Radish plants (Pernot variety) in starter cups, sown on a 50/50 peat soil-pozzolana substrate and grown at 18-20° C., are treated at the cotyledon stage by spraying with the aqueous suspension described above.
Plants, used as controls, are treated with an aqueous solution not containing the active material.
After 24 hours, the plants are contaminated by spraying them with an aqueous suspension of Alternaria brassicae spores (40,000 spores per cm^3). The spores are collected from a 12-13-day-old culture.
The contaminated radish plants are incubated for 6-7 days at about 18° C., under a humid atmosphere.
Grading is carried out 6 to 7 days after the contamination, in comparison with the control plants.

In another assay the test system is Botrytis cinerea. Description: In vivo test on Botrytis cinerea (cucumber grey mould), cucumber plants, preventive spray. Conditions: 330 ppm; comparison compounds of WO 01/11965. The protocol: as §1
Cucumber plants (Marketer variety) in starter cups, sown on a 50/50 peat soil-pozzolana substrate and grown at 18-20° C., are treated at the cotyledon Z11 stage by spraying with the aqueous suspension described above. Plants, used as controls, are treated with an aqueous solution not containing the active material.
After 24 hours, the plants are contaminated by depositing drops of an aqueous suspension of Botrytis cinerea spores (150,000 spores per ml) on upper surface of the leaves. The spores are collected from a 15-day-old culture and are suspended in a nutrient solution-composed of: • 20 g/L of gelatin • 50 g/L of cane sugar • 2 g/L of NH4NO3 • 1 g/L of KH2PO4
The contaminated cucumber plants are settled for 5/7 days in a climatic room at 15-11° C. (day/night) and at 80% relative humidity.
Grading is carried out 5/7 days after the contamination, in comparison with the control plants.

For a further assay, the system named is Peronospora parasitica. In words: Efficacy against Peronospora parasitica (comparison compound). The class given is in vivo. Conditions: 330 ppm; comparison compound of WO 01/11965.

On to `CC1=C(C(=O)NCC(NC(=O)c2c(Cl)cccc2Cl)c2ncc(C(F)(F)F)cc2Cl)SCCO1` (stereo not shown) [Compound 46], for which the “protection (good (at least 50%) to total)” value in the assay with Peronospora brassicae is on record as “at least 50%”. On to `O=C(Cc1cccs1)NCc1ncc(C(F)(F)F)cc1Cl` [compound 101, N-{[3-chloro-5-(trifluoromethyl)-2-pyridinyl]methyl}-5-thienylacetamide], for which the “effectiveness on Alternaria brassicae (in words)” value in the assay on Alternaria brassicae is “poor efficacy”. Also, the “effectiveness on Botrytis cinerea (in words)” value in the assay with Botrytis cinerea is “no efficacy”. Further, the “efficacy against Peronospora parasitica (in words)” value with Peronospora parasitica is “no efficacy”. For the compound `CCNC(=O)C(Cc1ncc(C(F)(F)F)cc1Cl)NC(=O)c1ccccc1` (stereo not shown) [compound 304, N-{1-ethylcarbamoyl-2-[3-chloro-5-(trifluoromethyl)-2-pyridinyl]-ethyl}-benzamide], the “effectiveness on Botrytis cinerea (in words)” value in the assay on Botrytis cinerea is listed as “zero effectiveness”. Regarding `CCNC(=O)C(Cc1ncc(C(F)(F)F)cc1Cl)NC(=O)c1ccc(Cl)cc1` (stereo not shown) [compound 306, N-{1-ethylcarbamoyl-2-[3-chloro-5-(trifluoromethyl)-2-pyridinyl]ethyl}-4-chlorobenzamide], the “effectiveness on Botrytis cinerea (in words)” value with Botrytis cinerea was “zero effectiveness”.

For the compound `CCNC(=O)C(Cc1ncc(C(F)(F)F)cc1Cl)NC(=O)c1cccc([N+](=O)[O-])c1` (stereo not shown) [compound 307, N-{1-ethylcarbamoyl-2-[3-chloro-5-(trifluoromethyl)-2-pyridinyl]ethyl}-3-nitrobenzamide], the “effectiveness on Alternaria brassicae (in words)” value with Alternaria brassicae is “poor effectiveness”. Moreover, the “effectiveness on Botrytis cinerea (in words)” value in the assay with Botrytis cinerea is listed as “zero effectiveness”. `CCNC(=O)C(Cc1ncc(C(F)(F)F)cc1Cl)NC(=O)c1ccccc1Br` (stereo not shown) [compound 310, N-{1-ethylcarbamoyl-2-[3-chloro-5-(trifluoromethyl)-2-pyridinyl]ethyl}-2-bromobenzamide]: the “effectiveness on Botrytis cinerea (in words)” value in the assay with Botrytis cinerea is “zero effectiveness”.

In the case of `CNC(=O)C(Cc1ncc(C(F)(F)F)cc1Cl)NC(=O)c1ccccc1` (stereo not shown) [compound 314, N-{1-methylcarbamoyl-2-[3-chloro-5-(trifluoromethyl)-2-pyridinyl]ethyl}-benzamide], in the assay with Botrytis cinerea, the “effectiveness on Botrytis cinerea (in words)” value was “zero effectiveness”. On to `CNC(=O)C(Cc1ncc(C(F)(F)F)cc1Cl)NC(=O)c1ccc(OC)cc1` (stereo not shown) [compound 315, N-{1-methylcarbamoyl-2-[3-chloro-5-(trifluoromethyl)-2-pyridinyl]ethyl}-4-methoxybenzamide], for which the “effectiveness on Botrytis cinerea (in words)” value in the assay on Botrytis cinerea is recorded as “zero effectiveness”. As for `CNC(=O)C(Cc1ncc(C(F)(F)F)cc1Cl)NC(=O)c1ccc(-c2ccccc2)cc1` (stereo not shown) [compound 316, N-{1-methylcarbamoyl-2-[3-chloro-5-(trifluoromethyl)-2-pyridinyl]-ethyl}-4-phenylbenzamide], the “effectiveness on Alternaria brassicae (in words)” value in the assay with Alternaria brassicae is given as “poor effectiveness”. The “effectiveness on Botrytis cinerea (in words)” value in the assay with Botrytis cinerea is listed as “zero effectiveness”.
